{
  "source": "patent US5614504A",
  "about": "“Method of making inosine monophosphate derivatives and immunopotentiating uses thereof” (The University of South Florida, priority 1995, dated 1997)",
  "key": {"[1]": {"test_system": "human peripheral blood lymphocytes (HPBL)", "test": "Response of normal HPBL to PHA (tritiated thymidine incorporation)", "type": "cell-based", "settings": "0.1-100 μg/ml; FIG. 1", "procedure": "(§1) In vitro: Both human peripheral blood lymphocytes (HPBL) and mouse spleen lymphocytes (MSL) were employed. […] For HPBL transformation, PHA and PWM were used at 0.5 μg/ml. For MSL transformation, Con A was used at 0.5 μg/ml, phytohemagglutinin (PHA, Murex Diagnostics, Atlanta, Ga.) at 0.5 μg/ml and lipopolysaccharide endotoxin (LPS, Sigma, St. Louis, Mo.) at 10 μg/ml.\n(§2) They were cultured in microwell plates at 1.5×10^6 cells/ml of minimal essential media (MEM, Gibco Labs, Grand Island, N.Y.) with 5% fetal calf serum (FCS, Hyclone Labs, Logan, Utah) and tested for their proliferative response to mitogens as measured by incorporation of (^3 H) tritiated thymidine (New England Nuclear, Wilmington Del., […]; 2.5 μCi/ml) during a terminal pulse followed by liquid scintillation spectrometry."}, "[2]": {"test_system": "mouse spleen lymphocytes (MSL)", "test": "Mouse spleen lymphocyte proliferation to Con A", "type": "cell-based", "settings": "0.1, 1, 10, 100 μg/ml; Con A 0.5 μg/ml", "procedure": "as §1, §2"}, "[3]": {"test": "in vitro", "type": "in vitro ADME, Crotalus atrox", "settings": "rattlesnake, pH 7.3; 0.02 units 5'-nucleotidase, 37° C., 10 minutes; four experiments; read-out: Hydrolysis (%)", "procedure": "(§3) Nucleotide samples (40-60 nmoles) were incubated at 37° C. for 10 minutes with 0.02 units 5'-nucleotidase in a total volume of 100 μl containing […] HEPES, pH 7.3 and […] MgCl2. […] Phosphate was determined by the absorbance of 820 nm. Blanks consisting of nucleotide but no enzyme were tested in parallel to correct for non-enzymatic hydrolysis."}, "[4]": {"test_system": "5'-nucleotidase (from Crotalus atrox venom)", "test": "in vitro", "type": "in vitro ADME", "settings": "in words", "procedure": "as §3"}, "[5]": {"test_system": "influenza virus", "type": "in vivo, NMRI mice", "settings": "Squalane alone"}, "[6]": {"test_system": "spleen plaque antibody forming cells (PFC)", "test": "In vivo stimulation of PFC response to SRBC", "design": "species or system mice", "settings": "for effect on PFC response: 50 mg/kg of body weight ip with SRBC, PFC five days later; for dose of optimal stimulation of PFC response: intraperitoneal", "procedure": "Five days later, suspensions of spleen cells were prepared and their viability was determined by trypan blue exclusion test. Cells were suspended at 3×10^6 /ml. 0.2 ml of spleen cell suspension was mixed with 0.8 ml of 0.7% agarose and 0.2 ml of freshly washed SRBC (at 6×10^5 /ml). The mixture was immediately poured into the plate and allowed to solidify. After 60 minutes of incubation at 37° C. in a humid atmosphere of 5% CO2 in the air, the plate was flooded with 1 ml of guinea-pig complement diluted 1:5 with Hank's balanced saline. Hemolytic plaques were counted with an inverted scope using 4× magnification.\nSpleen plaque antibody forming cells (PFC) were measured at the end of the five days."}, "[7]": {"settings": "in man; cited from earlier work"}},
  "data": [
    {"molecule": "CCOP(=O)(O)OC[C@H]1O[C@@H](n2cnc3c(=O)[nH]cnc32)[C@H](O)[C@@H]1O", "note": "[E-IMP, Ethyl-5'-inosine-monophosphate]", "values": [
      {"measurement": "relative activity on HPBL response to PHA", "setting": "[1]", "value": "more active"},
      {"measurement": "proliferative responses of MSL to Con A", "setting": "[2]", "value": "stimulated the proliferative responses"},
      {"measurement": "metabolised at 10 min", "setting": "[3]", "value": 2.9, "unit": "%"},
      {"measurement": "resistance to hydrolysis by 5'-nucleotidase", "setting": "[4]", "value": "extremely resistant"}
    ]},
    {"molecule": "CC(C)CCCC(C)CCCC(C)CCCCC(C)CCCC(C)CCCC(C)C", "note": "(stereo not shown) [Squalane, reference compound]", "values": [
      {"measurement": "effect on survival after influenza challenge", "setting": "[5]", "value": "no effect"}
    ]},
    {"molecule": "N=C(N)NCCC[C@H](NP(=O)(O)OC[C@H]1O[C@@H](n2cnc3c(=O)[nH]cnc32)[C@H](O)[C@@H]1O)C(=O)O", "note": "[Arg-IMP, Arginine-5'-inosine-monophosphate]", "values": [
      {"measurement": "effect on PFC response", "setting": "[6]", "value": "significantly stimulated"},
      {"measurement": "dose of optimal stimulation of PFC response", "setting": "[6]", "value": "50 mg/kg of body weight"},
      {"measurement": "relative activity on HPBL response to PHA", "setting": "[1]", "value": "more active"},
      {"measurement": "proliferative responses of MSL to Con A", "setting": "[2]", "value": "stimulated the proliferative responses"},
      {"measurement": "metabolised at 10 min", "setting": "[3]", "value": 12, "unit": "%"},
      {"measurement": "resistance to hydrolysis by 5'-nucleotidase", "setting": "[4]", "value": "moderate"}
    ]},
    {"molecule": "CC(CCCC(C)(C)O)NP(=O)(O)OC[C@H]1O[C@@H](n2cnc3c(=O)[nH]cnc32)[C@H](O)[C@@H]1O", "note": "(stereo partly shown) [Ha-IMP, (Heptamin-1-ol)-5'-inosine-monophosphate]", "values": [
      {"measurement": "effect on PFC response", "setting": "[6]", "value": "significantly stimulated"},
      {"measurement": "dose of optimal stimulation of PFC response", "setting": "[6]", "value": "50 mg/kg of body weight"},
      {"measurement": "relative activity on HPBL response to PHA", "setting": "[1]", "value": "low"},
      {"measurement": "proliferative responses of MSL to Con A", "setting": "[2]", "value": "stimulated the proliferative responses"},
      {"measurement": "metabolised at 10 min", "setting": "[3]", "value": 76, "unit": "%"},
      {"measurement": "resistance to hydrolysis by 5'-nucleotidase", "setting": "[4]", "value": "mild"}
    ]},
    {"molecule": "isoprinosine", "values": [
      {"measurement": "half-life", "setting": "[7]", "value": "less than four"}
    ]},
    {"molecule": "Nc1ncnc2c1ncn2[C@@H]1O[C@H](COP(=O)(O)O)[C@@H](O)[C@H]1O", "note": "[Adenosine MP, adenosine-5'-monophosphate, reference compound]", "values": [
      {"measurement": "metabolised at 10 min", "setting": "[3]", "value": 86, "unit": "%"}
    ]}
  ]
}
